Data on 53 substances can be found in patent US20240393292A1, “ALLERGY ANTIGEN AND EPITOPE THEREOF” (HOYU CO., LTD., priority 2019, published 2024).

This assay relates to IgE antibodies from patients. The assay is described as follows: Wheat epitope mapping (2): overlapping 10-amino-acid peptide fragments shifted by one amino acid.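 For Rank of partial sequence as epitope binding to IgE antibody: key = sequence deemed particularly important within the common 15-residue sequence.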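 For epitope sequence binding to IgE antibody, rank (Key/Preferably/More preferably): key of grades: preferably = shorter partial sequence still acting as epitope; more preferably = sequence improving IgE binding; key = particularly important sequence.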 In kind it is binding, human. The procedure, abridged:
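Cellulose-bound 10-mer peptides offset by one residue were probed with patient serum IgE and detected by chemiluminescence. Secondary-antibody-only signals were subtracted per peptide. Residual binding was expressed as % of the parent overlapping peptide, scored as none (<30%), poor (30–<50%), somewhat poor (50–<70%) or retained (≥70%).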

Setting [1] is: serum of patient P20 (WDEIA), sequence without X.
[2] abbreviates: serum of patient P16 (WDEIA), partial sequence.
Where [3] appears, read: serum of patient P18 (WDEIA), partial sequence.
[4] abbreviates: serum of patient P18 (WDEIA), sequence without X.
The mark [5] stands for this setting: serum of patient P28 (WDEIA), sequence without X.
[6] abbreviates: serum of patient P25 (WDEIA), partial sequence.

Regarding “1694 (EAANFTS; REGION 1..7: note = epitope) [compound 1694]”, for the setting “serum of patient P19 (WDEIA), sequence without X”, the “Rank of partial sequence as epitope binding to IgE antibody” value (shortened to “Rank of partial sequence”) is listed as “Key”. With “1439 (SQQQA; REGION 1..5: note = epitope) [compound 1439]”, the “Rank of partial sequence” value (serum of patient P16 (WDEIA), sequence without X) is reported as “Key”. For the substance “2315 (IIYS; REGION 1..4: note = epitope) [compound 2315]”, the “Epitope sequence binding to IgE antibody, rank of the sequence (Key/Preferably/More preferably)” value (serum of patient P25 (WDEIA), sequence without X) is “Key”. Consider “1618 (FVPISG; REGION 1..6: note = epitope) [compound 1618]”, for which, under setting [1], the “Rank of partial sequence” value is “Key”.

With “2505 (SQVSF; REGION 1..5: note = epitope) [compound 2505]”, under setting [2], the “Epitope sequence binding to IgE antibody, rank of the sequence” value is “Key”. In the case of “1790 (SGKELE; REGION 1..6: note = epitope) [compound 1790]”, where the note is “serum of patient P3 (WDEIA)”, the “epitope sequence binding to IgE antibody, rank (Key/Preferably/More preferably)” value is recorded as “Key”. Turning to “1601 (AQLEAIRSL; REGION 1..9: note = epitope) [compound 1601]”, the “Rank of partial sequence” value (serum of patient P3 (WDEIA), sequence without X) is reported as “Preferably”. As for “1863 (VIAEYTVRTL; REGION 1..10: note = epitope) [compound 1863]”, under “serum of patient P25 (WDEIA)”, the “epitope sequence binding to IgE antibody, rank (Key/Preferably/More preferably)” value was “Key”. Take “2717 (YKIGG; REGION 1..5: note = epitope) [compound 2717]”: the “Epitope sequence binding to IgE antibody, rank of the sequence” value under setting [3] is listed as “Key”. With “2227 (LLRGIRN; REGION 1..7: note = epitope) [compound 2227]”, under setting [4], the “Epitope sequence binding to IgE antibody, rank of the sequence (Key/Preferably/More preferably)” value is on record as “Key”. Regarding “2554 (LQQSTYQLVQ; REGION 1..10: note = epitope) [compound 2554]”, the “Epitope sequence binding to IgE antibody, rank of the sequence” value (serum of patient P20 (WDEIA), partial sequence) was “Key”.

On to “2716 (YKIGGI; REGION 1..6: note = epitope) [compound 2716]”, for which the “Epitope sequence binding to IgE antibody, rank of the sequence” value under setting [3] is given as “Preferably”. Consider “2608 (QLVQQL; REGION 1..6: note = epitope) [compound 2608]”, for which the “Epitope sequence binding to IgE antibody, rank of the sequence” value (serum of patient G6 (adult, general immediate type allergy to wheat), partial sequence) is “Key”.

In the case of “1514 (QVPLVQQQQ; REGION 1..9: note = epitope) [compound 1514]”, where the note is “serum of patient P4 (WDEIA), sequence without X”, the “Rank of partial sequence” value is “Preferably”. With “2383 (HDIDRCAY; REGION 1..8: note = epitope) [compound 2383]”, the “Epitope sequence binding to IgE antibody, rank of the sequence (Key/Preferably/More preferably)” value (serum of patient P29 (WDEIA), sequence without X) was “Key”. For the substance “1346 (NRRALR; REGION 1..6: note = epitope) [compound 1346]”, where the note is “serum of patient P33 (WDEIA), sequence without X”, the “Epitope sequence binding to IgE antibody, rank of the sequence” value was “Key”. On to “2718 (GIGTVPVGRV; REGION 1..10: note = epitope) [compound 2718]”, for which the “Epitope sequence binding to IgE antibody, rank of the sequence” value under setting [3] is reported as “Key”. For “1774 (YLKKVGYNP; REGION 1..9: note = epitope) [compound 1774]”, the “epitope sequence binding to IgE antibody, rank (Key/Preferably/More preferably)” value (serum of patient P55 (child, general immediate type allergy to wheat)) is “Preferably”.

Consider “2583 (QLVQQ; REGION 1..5: note = epitope) [compound 2583]”, for which, where the note is “serum of patient P31 (WDEIA), partial sequence”, the “Epitope sequence binding to IgE antibody, rank of the sequence” value is “Preferably”. With “1425 (YLQPQQPIS; REGION 1..9: note = epitope) [compound 1425]”, the “Epitope sequence binding to IgE antibody, rank of the sequence” value (serum of patient P12 (WDEIA), sequence without X) is reported as “Preferably”. For the substance “2603 (QLVQQLC; REGION 1..7: note = epitope) [compound 2603]”, for the setting “serum of patient P54 (child, general immediate type allergy to wheat), partial sequence”, the “Epitope sequence binding to IgE antibody, rank of the sequence” value was “Key”. For the substance “1821 (SGKELEALPK; REGION 1..10: note = epitope) [compound 1821]”, the “epitope sequence binding to IgE antibody, rank (Key/Preferably/More preferably)” value (serum of patient P34 (WDEIA)) is given as “Key”. For the substance “1757 (KVGYNP; REGION 1..6: note = epitope) [compound 1757]”, the “epitope sequence binding to IgE antibody, rank (Key/Preferably/More preferably)” value (serum of patient P8 (WDEIA)) is recorded as “Key”. For “1799 (KFLK; REGION 1..4: note = epitope) [compound 1799]”, the “epitope sequence binding to IgE antibody, rank (Key/Preferably/More preferably)” value (serum of patient P15 (WDEIA)) is listed as “Key”. Turning to “2726 (KIGG; REGION 1..4: note = epitope) [compound 2726]”, the “Epitope sequence binding to IgE antibody, rank of the sequence” value (serum of patient P27 (WDEIA), partial sequence) was “Key”. With “2543 (VSFQPSQLN; REGION 1..9: note = epitope) [compound 2543]”, the “Epitope sequence binding to IgE antibody, rank of the sequence” value (serum of patient G7 (adult, general immediate type allergy to wheat), partial sequence) is “Preferably”.

For the substance “1213 (PIQQQPQPFP; REGION 1..10: note = epitope) [compound 1213]”, the “Epitope sequence binding to IgE antibody, rank of the sequence” value (serum of patient P7 (WDEIA), sequence without X) is reported as “Preferably”. In the case of “2372 (TEIVL; REGION 1..5: note = epitope) [compound 2372]”, the “Epitope sequence binding to IgE antibody, rank of the sequence (Key/Preferably/More preferably)” value (serum of patient P26 (WDEIA), sequence without X) is “Preferably”. As to “2642 (KEAAEM; REGION 1..6: note = epitope) [compound 2642]”, the “Epitope sequence binding to IgE antibody, rank of the sequence” value under setting [2] is on record as “Key”. With “2358 (TEIV; REGION 1..4: note = epitope) [compound 2358]”, the “Epitope sequence binding to IgE antibody, rank of the sequence (Key/Preferably/More preferably)” value under setting [4] is recorded as “Key”.

Regarding “2595 (VQQL; REGION 1..4: note = epitope) [compound 2595]”, the “Epitope sequence binding to IgE antibody, rank of the sequence” value (serum of patient P36 (WDEIA), partial sequence) was “Key”. For “1946 (FPGQ; REGION 1..4: note = epitope) [compound 1946]”, under “serum of patient P22 (WDEIA)”, the “epitope sequence binding to IgE antibody, rank (Key/Preferably/More preferably)” value is given as “Key”.

Take “1591 (QPFPQTQQP; REGION 1..9: note = epitope) [compound 1591]”: under “serum of patient P50 (child, general immediate type allergy to wheat), sequence without X”, the “Rank of partial sequence” value is listed as “Key”.

For the substance “2252 (LLRGIRNYRV; REGION 1..10: note = epitope) [compound 2252]”, the “Epitope sequence binding to IgE antibody, rank of the sequence (Key/Preferably/More preferably)” value (serum of patient P52 (child, general immediate type allergy to wheat), sequence without X) was “More preferably”. For the substance “2275 (KRVIERFEK; REGION 1..9: note = epitope) [compound 2275]”, the “Epitope sequence binding to IgE antibody, rank of the sequence (Key/Preferably/More preferably)” value (serum of patient P8 (WDEIA), sequence without X) is reported as “Key”. Regarding “2700 (YKGPTL; REGION 1..6: note = epitope) [compound 2700]”, where the note is “serum of patient G9 (adult, general immediate type allergy to wheat), partial sequence”, the “Epitope sequence binding to IgE antibody, rank of the sequence” value is listed as “Key”. As for “2380 (DRCAYVTEIV; REGION 1..10: note = epitope) [compound 2380]”, under setting [5], the “Epitope sequence binding to IgE antibody, rank of the sequence (Key/Preferably/More preferably)” value is reported as “Key”. Take “1942 (QQFPGQQ; REGION 1..7: note = epitope) [compound 1942]”: the “epitope sequence binding to IgE antibody, rank (Key/Preferably/More preferably)” value (serum of patient P21 (WDEIA)) is reported as “Preferably”. For the substance “1221 (PIQQQPQPF; REGION 1..9: note = epitope) [compound 1221]”, the “Epitope sequence binding to IgE antibody, rank of the sequence” value (serum of patient P10 (WDEIA), sequence without X) is reported as “Preferably”. Consider “1839 (TVRTLQR; REGION 1..7: note = epitope) [compound 1839]”, for which the “epitope sequence binding to IgE antibody, rank (Key/Preferably/More preferably)” value (serum of patient P5 (WDEIA)) is “Preferably”. As to “2720 (IGGIGTVPVG; REGION 1..10: note = epitope) [compound 2720]”, the “Epitope sequence binding to IgE antibody, rank of the sequence” value under setting [6] is recorded as “Preferably”.

Consider “2516 (SSQVSF; REGION 1..6: note = epitope) [compound 2516]”, for which the “Epitope sequence binding to IgE antibody, rank of the sequence” value (serum of patient P53 (child, general immediate type allergy to wheat), partial sequence) is reported as “Key”. Regarding “1704 (EAANFT; REGION 1..6: note = epitope) [compound 1704]”, the “Rank of partial sequence” value under setting [5] is on record as “Key”. With “2376 (AYVTEIV; REGION 1..7: note = epitope) [compound 2376]”, the “Epitope sequence binding to IgE antibody, rank of the sequence (Key/Preferably/More preferably)” value (serum of patient P27 (WDEIA), sequence without X) is “Preferably”. In the case of “1726 (KEAANFTS; REGION 1..8: note = epitope) [compound 1726]”, the “epitope sequence binding to IgE antibody, rank (Key/Preferably/More preferably)” value (serum of patient P51 (child, general immediate type allergy to wheat)) was “Preferably”. As for “2619 (LASLSK; REGION 1..6: note = epitope) [compound 2619]”, the “Epitope sequence binding to IgE antibody, rank of the sequence” value (serum of patient P32 (WDEIA), partial sequence) was “Key”.

Turning to “1683 (YNPDKVPF; REGION 1..8: note = epitope) [compound 1683]”, the “Rank of partial sequence” value (serum of patient G9 (adult, general immediate type allergy to wheat), sequence without X) is on record as “Key”. Regarding “1388 (QQPLPPQQQ; REGION 1..9: note = epitope) [compound 1388]”, where the note is “serum of patient P14 (WDEIA), sequence without X”, the “Epitope sequence binding to IgE antibody, rank of the sequence” value was “Preferably”. On to “1194 (QQQQFPPQ; REGION 1..8: note = epitope) [compound 1194]”, for which, for the setting “serum of patient P22 (WDEIA), sequence without X”, the “Epitope sequence binding to IgE antibody, rank of the sequence” value is listed as “Key”. As to “1565 (QQQQFLGQ; REGION 1..8: note = epitope) [compound 1565]”, the “Rank of partial sequence” value (serum of patient G7 (adult, general immediate type allergy to wheat), sequence without X) was “Key”. Consider “2719 (YKIGG; REGION 1..5: note = epitope) [compound 2719]”, for which, under setting [6], the “Epitope sequence binding to IgE antibody, rank of the sequence” value is “Key”. For “1695 (EAANFT; REGION 1..6: note = epitope) [compound 1695]”, under setting [1], the “Rank of partial sequence” value was “Key”. As for “1913 (QVPLVQQ; REGION 1..7: note = epitope) [compound 1913]”, where the note is “serum of patient P8 (WDEIA)”, the “epitope sequence binding to IgE antibody, rank (Key/Preferably/More preferably)” value is “Key”.
